Data set [1] concerns the target T1, aldose reductase (Bos taurus, UniProt P16116).
T1 construct: The enzyme was extracted from beef crystalline lenses; from tissue; host or cells: beef crystalline lenses
As to the kind of experiment: Inhibition of aldose reductase in vitro. The class given is biochemical. The conditions noted are these: enzyme from beef crystalline lenses; glyceraldehyde reduction, NADPH spectrophotometry. The protocol:
The enzyme was extracted from beef crystalline lenses by the method described by S. Hayman and J. H. Kinoshita (J. Biol. Chem. 1965, 240, (2), 877). The percentage of inhibition of the capacity of the enzyme to reduce glyceraldehyde to glycerol under the effect of the product to be tested was determined by spectrophotometric determination of the amount of NADPH reacting according to the method described by Hayman and Kinoshita.

The nature of data set [2]: Toxicity in mice. As to conditions: mouse, in vivo, ip, 200 mg/kg. On the procedure: (§1) The toxicity of the products of this invention was determined in mice.
Data set [3] deals with mice. Put plainly: Toxicity in mice. The protocol: as §1
Data set [4] concerns hypercholesterolemic mice. Put plainly: Hypolipidemic activity in hypercholesterolemic mice. The conditions noted are these: 400 mg/kg orally, twice at 20 hour intervals. The class given is in vivo. The protocol: The products, object of this invention, are useful as hypolipidemic agents. Thus, COR 1983 administered twice in a dose of 400 mg/kg orally at 20 hour intervals in hypercholesterolemic mice caused 24% reduction in cholesterolemia.

Data set [5] concerns neuropathy induced by streptozotocin. Put plainly: Streptozotocin neuropathy in rats (sciatic nerve sorbitol and inositol, glycemia). The data set is classed as in vivo. As to conditions: for inositol level in sciatic nerves / sorbitol level in sciatic nerves: streptozotocin 100 mg/kg i.p.; for inositol level in sciatic nerves: 3rd day, controls 2.174±0.481; for sorbitol level in sciatic nerves: controls 0.819±0.215; for glycemia: streptozotocin, D 3, controls 4.72±0.60. On the procedure:
4 batches of 10 rats weighing about 200 g were treated from D--2 to D+3 with a gummy julep of the product to be tested. At D 0 the animals received an i.p. injection of 100 mg/kg of streptozotocin dissolved in a citrate buffer. The glycemia was determined 24 hours and 3 days after injection of the diabetogenic agent. The rats were sacrificed on the 3rd day after streptozotocin injection and the sciatic nerves were removed to determine the sorbitol and inositol levels. Tested under these condition, COR 1988 caused a reduction of the sorbitol level that went from 0.819±0.215 mg/kg in the controls to 0.608±0.049 mg/kg in animals treated with 50 mg/kg and to 0.482±0.091 mg/kg in animals treated with 100 mg/kg. Also the inositol level went from 2.174±0.481 mg/kg in the controls to 1.593±0.109 mg/kg in the animals treated wtih 25 mg/kg, to 1.430+0.104 mg/kg in the animals treated with 50 mg/kg and to 1.402±0.130 mg/kg in animals treated with 100 mg/kg. The sorbitol and inositol levels after treatment were compared with the control levels by the U test of Mann and Whitney (D. Schwartz, Methodes statistique a 1' usage des medecins et biologists [Statistical method for use by physicians and biologistes], Ed. Flammarion, Paris 1963). The results obtained are significant with p<1%. Glycemia of the control animals was 4.72±0.60g/l on D 3. It went to 3.93±0.82 g/l in animals treated with […] of COR 1988 and to 3.61±0.73 g/l in animals treated with 100 mg/kg. The reduction of glycemia are significant.

SMILES strings stand for the structures. pIC50: −log10 of the molar value.

Regarding `O=c1c(OC2CCCCC2)c(-c2ccc(O)c(O)c2)oc2cc(O)cc(O)c12` [COR 1983, 3-cyclohexyloxy-5,7-3',4'-tetrahydroxyflavone], in data set [1], the pIC50 (usually −log10 of the IC50, conventionally taken in molar units) is 5.80. Further, the mortality – broadly, the share of the test organisms that died – in data set [2] was 10%; in data set [3] (mice, orally, in water with 6% gum, dose of 1 g/kg), “no mortality”; in data set [3] (mouse, in vivo) it was “did not cause any mortality”. Besides, in data set [4], the reduction in cholesterolemia amounted to 24%.
In the case of `CCOc1c(-c2ccc(O)c(O)c2)oc2cc(O)ccc2c1=O` [COR 1987, 3-Ethoxy-7,3',4'trihydroxyflavone], the negative logarithm of the IC50 (pIC50) in data set [1] was 6.30.
In data set [1], `CS(=O)(=O)Oc1c(-c2ccc(O)c(O)c2)oc2cc(O)cc(O)c2c1=O` [COR 1988, 3-methanesulfonyloxy-3',4',5,7-tetrahydroxyflavone] showed a pIC50 of 6.60. Moreover, the “inositol level in sciatic nerves” value was determined as 1.593 ± 0.109 mg/kg in data set [5] (treated with 25 mg/kg), 1.430 ± 0.104 mg/kg in data set [5] (treated with 50 mg/kg) and 1.402 ± 0.130 mg/kg in data set [5] (treated with 100 mg/kg). The “sorbitol level in sciatic nerves” value in data set [5] (treated with 50 mg/kg D-2 to D+3, 3rd day) came out at 0.608 ± 0.049 mg/kg; in data set [5] (treated with 100 mg/kg D-2 to D+3, 3rd day) it was 0.482 ± 0.091 mg/kg. The glycemia in data set [5] (treated with 50 mg/kg) was 3.93 ± 0.82 g/L; in data set [5] (treated with 100 mg/kg), 3.61 ± 0.73 g/L. The mortality entry in data set [3] (mice, orally, in water with 6% gum, up to a dose of 3 g/kg) is given as “did not cause any mortality”.
In the case of `Cc1ccc(S(=O)(=O)Oc2c(-c3ccc(O)c(O)c3)oc3cc(O)cc(O)c3c2=O)cc1` [COR 1990, 3-Paratoluenesulfonyloxy-5,7,3',4'-tetrahydroxyflavone], the pIC50 in data set [1] is 5.50.

Source of the values: patent US4591600A, “3-hydroxyflavones: their preparation and therapeutic application” (Societe Cortial, S.A., priority 1983, dated 1986).
